Experiments:
[1] = tested on: purple nutsedge; assay: Test B pre/postemergence purple nutsedge; format: in vivo, Cyperus rotundus
How it was run: (§1)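 Response is a visual 0-to-10 score relative to untreated plants, where 0 means no effect and 10 means complete control, taken twelve to sixteen days after application. Treatments went onto soil at planting and onto foliage of 1- to 4-leaf plants, using a surfactant-containing non-phytotoxic solvent.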

[2] = tested on: corn; assay: Test B pre/postemergence corn; format: in vivo, Zea mays
How it was run: as §1

[3] = tested on: cocklebur; assay: Test B pre/postemergence cocklebur; format: in vivo, Xanthium strumarium
How it was run: as §1

[4] = tested on: crabgrass; assay: Test B pre/postemergence crabgrass; format: in vivo, Digitaria sanguinalis
How it was run: as §1

[5] = tested on: bamyardgrass; assay: Test B flood test barnyardgrass; format: in vivo, Echinochloa crus-galli
How it was run: (§2)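 Flood test on plants grown to the 2-leaf stage; treated plants kept in greenhouse twelve to sixteen days, then visually rated against controls on a 0 (no effect) to 10 (complete control) scale.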

[6] = tested on: wild oat; assay: Test B pre/postemergence wild oat; format: in vivo, Avena fatua
How it was run: as §1

[7] = tested on: blackgrass; assay: Test B pre/postemergence blackgrass; format: in vivo, Alopecurus myosuroides
How it was run: as §1

[8] = tested on: sugar beet; assay: Test B pre/postemergence sugar beet; format: in vivo, Beta vulgaris
How it was run: as §1

[9] = tested on: duck salad; assay: Test B flood test duck salad; format: in vivo, Heteranthera limosa
How it was run: as §2

[10] = tested on: wheat; assay: Test B pre/postemergence wheat; format: in vivo, Triticum aestivum
How it was run: as §1

[11] = tested on: rape; assay: Test B pre/postemergence rape; format: in vivo, Brassica napus
How it was run: as §1

[12] = tested on: smallflower flatsedge; assay: Test B flood test smallflower flatsedge; format: in vivo, Cyperus difformis
How it was run: as §2

[13] = tested on: rice; assay: Test B flood test rice; format: in vivo, Oryza sativa
How it was run: as §2

[14] = tested on: soybean; assay: Test B pre/postemergence soybean; format: in vivo, Glycine max
How it was run: as §1

[15] = tested on: velvetleaf; assay: Test B pre/postemergence velvetleaf; format: in vivo, Abutilon theophrasti
How it was run: as §1

[16] = tested on: bedstraw; assay: Test B pre/postemergence bedstraw; format: in vivo, Galium aparine
How it was run: as §1

[17] = tested on: surinam grass; assay: Test B pre/postemergence surinam grass; format: in vivo, Brachiaria decumbens
How it was run: as §1

[18] = Postemergence, Rate 62 g/ha, scale 0 to 10, 0 is no effect, 10 is complete control
[19] = Postemergence, Rate 250 g/ha, scale 0 to 10, 0 no effect, 10 complete control
[20] = Preemergence, Rate 31 g/ha, visual rating, scale 0 to 10 (0 no effect, 10 complete control)
[21] = Preemergence, Rate 62 g/ha, scale 0 to 10, 0 is no effect, 10 is complete control
[22] = Preemergence, Rate 125 g/ha, scale 0 to 10 (0 no effect, 10 complete control)
[23] = Preemergence, Rate 250 g/ha, scale of 0 to 10 where 0 is no effect and 10 is complete control
[24] = Rate 31 g/ha, Postemergence, scale 0 to 10
[25] = Rate 125 g/ha, Postemergence, scale 0 to 10, 0 no effect, 10 complete control
[26] = Rate 125 g/ha, Postemergence section (flood test species), scale 0 to 10, 0 no effect, 10 complete control
[27] = Rate 500 g/ha, Postemergence section of Table B, 0 to 10 scale (0 no effect, 10 complete control)
[28] = flood test, listed under Postemergence, Rate 250 g/ha, scale 0 to 10, 0 no effect, 10 complete control

CCN(C(=O)n1oc(=O)n(-c2ccc(C)cc2C)c1=O)C1CCCCC1 [Compound 26]
Nutsedge plant response rating [1, 18]: 0
Nutsedge plant response rating [1, 19]: 0
Nutsedge plant response rating [1, 20]: 0
Plant response rating, Nutsedge [1, 21]: 0
Plant response rating, Nutsedge [1, 22]: 0
Plant response rating, Nutsedge [1, 23]: 0
Nutsedge plant response rating [1, 24]: 0
Nutsedge plant response rating [1, 25]: 0
Corn plant response rating [2, 18]: 0
Corn plant response rating [2, 19]: 0
Corn plant response rating [2, 20]: 0
Plant response rating, Corn [2, 21]: 0
Plant response rating, Corn [2, 22]: 0
Plant response rating, Corn [2, 23]: 0
Corn plant response rating [2, 24]: 0
Corn plant response rating [2, 25]: 0
Cocklebur plant response rating [3, 18]: 0
Cocklebur plant response rating [3, 19]: 0
Cocklebur plant response rating [3, 20]: 0
Plant response rating, Cocklebur [3, 21]: 0
Plant response rating, Cocklebur [3, 22]: 0
Plant response rating, Cocklebur [3, 23]: 0
Cocklebur plant response rating [3, 24]: 0
Cocklebur plant response rating [3, 25]: 0
Crabgrass plant response rating [4, 18]: 0
Crabgrass plant response rating [4, 19]: 1
Crabgrass plant response rating [4, 20]: 0
Plant response rating, Crabgrass [4, 21]: 0
Plant response rating, Crabgrass [4, 22]: 0
Plant response rating, Crabgrass [4, 23]: 3
Crabgrass plant response rating [4, 24]: 0
Crabgrass plant response rating [4, 25]: 0
Barnyardgrass plant response rating [5, 18]: 0
Barnyardgrass plant response rating [5, 26]: 0
Barnyardgrass plant response rating [5, 27]: 0
Barnyardgrass plant response rating [5, 28]: 0
Wild oats plant response rating [6, 18]: 0
Wild oats plant response rating [6, 19]: 0
Wild oats plant response rating [6, 20]: 0
Plant response rating, Wild oats [6, 22]: 0
Plant response rating, Wild oats [6, 23]: 0
Wild oats plant response rating [6, 25]: 0
Blackgrass plant response rating [7, 18]: 0
Blackgrass plant response rating [7, 19]: 0
Blackgrass plant response rating [7, 20]: 0
Plant response rating, Blackgrass [7, 21]: 0
Plant response rating, Blackgrass [7, 22]: 0
Plant response rating, Blackgrass [7, 23]: 0
Blackgrass plant response rating [7, 24]: 0
Blackgrass plant response rating [7, 25]: 0
Sugarbeets plant response rating [8, 18]: 0
Sugarbeets plant response rating [8, 19]: 0
Sugarbeets plant response rating [8, 20]: 0
Plant response rating, Sugarbeets [8, 21]: 0
Plant response rating, Sugarbeets [8, 22]: 0
Plant response rating, Sugarbeets [8, 23]: 0
Sugarbeets plant response rating [8, 25]: 0
Ducksalad plant response rating [9, 18]: 0
Ducksalad plant response rating [9, 26]: 0
Ducksalad plant response rating [9, 27]: 0
Ducksalad plant response rating [9, 28]: 0
Wheat plant response rating [10, 18]: 0
Wheat plant response rating [10, 19]: 0
Wheat plant response rating [10, 20]: 0
Plant response rating, Wheat [10, 21]: 0
Plant response rating, Wheat [10, 22]: 0
Plant response rating, Wheat [10, 23]: 0
Wheat plant response rating [10, 25]: 0
Rape plant response rating [11, 18]: 0
Rape plant response rating [11, 19]: 0
Rape plant response rating [11, 20]: 0
Plant response rating, Rape [11, 21]: 0
Plant response rating, Rape [11, 22]: 0
Plant response rating, Rape [11, 23]: 0
Rape plant response rating [11, 24]: 0
Rape plant response rating [11, 25]: 0
S. Flatsedge plant response rating [12, 18]: 0
S. Flatsedge plant response rating [12, 26]: 0
S. Flatsedge plant response rating [12, 28]: 0
Rice plant response rating [13, 18]: 0
Rice plant response rating [13, 26]: 0
Rice plant response rating [13, 27]: 0
Rice plant response rating [13, 28]: 0
Soybean plant response rating [14, 18]: 1
Soybean plant response rating [14, 19]: 2
Soybean plant response rating [14, 20]: 0
Plant response rating, Soybean [14, 21]: 0
Plant response rating, Soybean [14, 22]: 0
Plant response rating, Soybean [14, 23]: 0
Soybean plant response rating [14, 25]: 1
Velvetleaf plant response rating [15, 18]: 0
Velvetleaf plant response rating [15, 19]: 0
Velvetleaf plant response rating [15, 20]: 0
Plant response rating, Velvetleaf [15, 21]: 0
Plant response rating, Velvetleaf [15, 22]: 0
Plant response rating, Velvetleaf [15, 23]: 0
Velvetleaf plant response rating [15, 25]: 0
Bedstraw plant response rating [16, 18]: 0
Bedstraw plant response rating [16, 19]: 0
Bedstraw plant response rating [16, 20]: 0
Plant response rating, Bedstraw [16, 21]: 0
Plant response rating, Bedstraw [16, 22]: 0
Plant response rating, Bedstraw [16, 23]: 0
Bedstraw plant response rating [16, 24]: 0
Bedstraw plant response rating [16, 25]: 0
B. signalgrass plant response rating [17, 18]: 0
B. signalgrass plant response rating [17, 19]: 0
B. signalgrass plant response rating [17, 20]: 0
Plant response rating, B. signalgrass [17, 21]: 0
Plant response rating, B. signalgrass [17, 22]: 0
Plant response rating, B. signalgrass [17, 23]: 2
B. signalgrass plant response rating [17, 24]: 0
B. signalgrass plant response rating [17, 25]: 0
